Assay results reported in patent US20060069132A1, “Azolecarboxamide herbicides” (priority 2004, published 2006).

How the values were obtained:
[1] = test system: barnyardgrass; assay: Test B pre-/postemergence herbicide test; format: in vivo, Echinochloa crus-galli; settings: for Barnyardgrass plant response rating: Postemergence, scale 0 (no effect) to 100 (complete control)
Procedure, shortened: (§1)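 Greenhouse pot assay with simultaneous preemergence (treated seed) and postemergence (2–18 cm seedlings) applications of surfactant-containing, non-phytotoxic solvent formulations. Response scored visually 13–15 days later on a 0–100 scale, 100 meaning complete control.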

[2] = test system: lambsquarters; assay: Test B pre-/postemergence herbicide test; format: in vivo, Chenopodium album
Procedure, shortened: (§2)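 Visual rating, 0 (no effect) to 100 (complete control), versus untreated controls after 13–15 d in greenhouse. Pre- and postemergence applications (postemergence plants 2–18 cm, 1–4 leaves); flooded paddy arm at 2-leaf stage. Compounds in non-phytotoxic solvent plus surfactant.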

[3] = test system: giant foxtail; assay: Test B pre-/postemergence herbicide test; format: in vivo, Setaria faberi
Procedure, shortened: as §2

[4] = test system: canarygrass; assay: Test C postemergence herbicide test; format: in vivo, Phalaris minor
Experimental: (§3) At the same time, plants selected from these crop and weed species and also winter barley (Hordeum vulgare L.), blackgrass (Alopecurus myosuroides Huds.), canarygrass (Phalaris minor Retz.), chickweed (Stellaria media (L.) Vill.), downy bromegrass (Bromus tectorum L.), green foxtail (Setaria viridis (L.) Beauv.), Italian ryegrass (Lolium multiflorum Lam.), wheat (Triticum aestivum L.), wild oat (Avenafatua L.) and windgrass (Apera spica-venti (L.) Beauv.) were treated with postemergence applications of some of the test chemicals formulated in the same manner. Plants ranged in height from 2 to 18 cm (1- to 4-leaf stage) for postemergence treatments. Plant species in the flooded paddy test consisted of rice (Oryza sativa), smallflower umbrella sedge (Cyperus difformis L.), ducksalad (Heteranthera limosa (Sw.) Willd.) and barnyardgrass (Echinochloa crus-galli (L.) Beauv.) grown to the 2-leaf stage for testing. Treated plants and controls were maintained in a greenhouse for 12 to 14 days, after which time all species were compared to controls and visually evaluated. Plant response ratings, summarized in Table C, are based on a scale of 0 to 100 where 0 is no effect and 100 is complete control. A dash (-) response means no test result.

[5] = test system: wild oat; assay: Test C postemergence herbicide test; format: in vivo, Avenafatua
Experimental: as §3

[6] = test system: wheat; assay: Test C postemergence herbicide test; format: in vivo, Triticum aestivum
Experimental: as §3

[7] = test system: pigweed; assay: Test B pre-/postemergence herbicide test; format: in vivo, Amaranthus retroflexus
Procedure, shortened: as §2

[8] = test system: Italian ryegrass; assay: Test C postemergence herbicide test; format: in vivo, Lolium multiflorum
Experimental: as §3

[9] = test system: blackgrass; assay: Test B postemergence herbicide test; format: in vivo, Alopecurus myosuroides
Procedure, shortened: (§4)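 Greenhouse test; postemergence application to plants at 1–4 leaves (2–18 cm); paddy species at 2 leaves; evaluated visually vs controls at 13–15 days; scale 0–100 (100 = complete control).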

[10] = test system: green foxtail; assay: Test C postemergence herbicide test; format: in vivo, Setaria viridis
Experimental: as §3

[11] = test system: ducksalad; assay: Test B flooded paddy test; format: in vivo, Heteranthera limosa; settings: 1000 g ai/ha, scale 0 to 100 (0 no effect, 100 complete control)
Procedure, shortened: as §4

[12] = test system: downy bromegrass; assay: Test C postemergence herbicide test; format: in vivo, Bromus tectorum
Experimental: as §3

[13] = test system: morningglory; assay: Test B pre-/postemergence herbicide test; format: in vivo, Ipomoea coccinea
Procedure, shortened: as §1

[14] = test system: small flower umbrella sedge; assay: Test B flooded paddy test; format: in vivo, Cyperus difformis; settings: 1000 g ai/ha, scale 0 to 100 (0 no effect, 100 complete control)
Procedure, shortened: as §4

[15] = test system: wheat; assay: Test B postemergence herbicide test; format: in vivo, Triticum aestivum; parameters: key to Wheat plant response rating: 0 = no effect, 100 = complete control
Procedure, shortened: as §4

[16] = test system: winter barley; assay: Test C postemergence herbicide test; format: in vivo, Hordeum vulgare
Experimental: as §3

[17] = test system: Surinam grass; assay: Test B pre-/postemergence herbicide test; format: in vivo, Urochloa decumbens
Procedure, shortened: as §2

[18] = test system: barnyardgrass; assay: Test B flooded paddy test; format: in vivo, Echinochloa crus-galli; settings: 1000 g ai/ha, scale 0 to 100 (0 no effect, 100 complete control)
Procedure, shortened: as §4

[19] = test system: cocklebur; assay: Test B pre-/postemergence herbicide test; format: in vivo, Xanthium strumarium
Procedure, shortened: as §1

[20] = test system: corn; assay: Test B pre-/postemergence herbicide test; format: in vivo, Zea mays
Procedure, shortened: as §2

[21] = test system: large crabgrass; assay: Test B pre-/postemergence herbicide test; format: in vivo, Digitaria sanguinalis
Procedure, shortened: as §2

[22] = test system: blackgrass; assay: Test C postemergence herbicide test; format: in vivo, Alopecurus myosuroides
Experimental: as §3

[23] = test system: rice; assay: Test B flooded paddy test; format: in vivo, Oryza sativa; settings: 1000 g ai/ha, scale 0 to 100 (0 no effect, 100 complete control)
Procedure, shortened: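 Read-out: visual comparison with controls, scored 0 to 100, where 100 means complete control and 0 no effect. Formulated chemicals were applied postemergence to plants 2–18 cm tall (1- to 4-leaf), or to flooded-paddy plants at the 2-leaf stage, then held 13 to 15 days under glass.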

[24] = test system: velvetleaf; assay: Test B pre-/postemergence herbicide test; format: in vivo, Abutilon theophrasti
Procedure, shortened: as §2

[25] = test system: windgrass; assay: Test C postemergence herbicide test; format: in vivo, Apera spica-venti
Experimental: as §3

[26] = test system: wild oat; assay: Test B postemergence herbicide test; format: in vivo, Avena fatua
Procedure, shortened: as §4

[27] = 125 g ai/ha, 0 is no effect, 100 is complete control, preemergence
[28] = Postemergence, 500 g ai/ha, scale 0 (no effect) to 100 (complete control)
[29] = postemergence, 125 g ai/ha, scale 0 to 100
[30] = Postemergence, 250 g ai/ha, scale 0 to 100, 0 no effect, 100 complete control
[31] = Postemergence, 500 g ai/ha, scale 0 to 100, 0 no effect, 100 complete control
[32] = postemergence, 62 g ai/ha, scale 0 to 100
[33] = Postemergence, 500 g ai/ha, scale 0 to 100

SMILES: CN(C)C(=O)c1cccc(NC(=O)c2nn(C(C)(C)C)nc2Br)c1 [Compound 429]
- Plant response rating (0 to 100 scale), Barnyardgrass [1, 27]: 100
- Barnyardgrass plant response rating ([1]; 125 g ai/ha): 30
- Barnyardgrass plant response rating ([1]; 500 g ai/ha): 60
- Plant response rating (0 to 100 scale), Lambsquarters [2, 27]: 100
- Lambsquarters plant response rating [2, 28]: 70
- Lambsquarters plant response rating [2, 29]: 50
- Plant response rating (0 to 100 scale), Foxtail, Giant [3, 27]: 90
- Foxtail, Giant plant response rating [3, 28]: 40
- Foxtail, Giant plant response rating [3, 29]: 30
- Plant response rating, Canarygrass [4, 30]: 55
- Plant response rating, Canarygrass [4, 31]: 60
- Plant response rating, Canarygrass [4, 29]: 40
- Plant response rating, Canarygrass [4, 32]: 20
- Plant response rating, Oat, Wild [5, 31]: 65
- Plant response rating, Oat, Wild [5, 29]: 60
- Plant response rating, Oat, Wild [5, 32]: 45
- Plant response rating, Wheat [6, 31]: 45
- Plant response rating, Wheat [6, 29]: 35
- Plant response rating, Wheat [6, 32]: 25
- Plant response rating (0 to 100 scale), Pigweed [7, 27]: 100
- Pigweed plant response rating [7, 28]: 50
- Pigweed plant response rating [7, 29]: 40
- Plant response rating, Ryegrass, Italian [8, 31]: 60
- Plant response rating, Ryegrass, Italian [8, 29]: 50
- Plant response rating, Ryegrass, Italian [8, 32]: 45
- Blackgrass plant response rating [9, 28]: 50
- Blackgrass plant response rating [9, 29]: 20
- Plant response rating, Foxtail, Green [10, 30]: 55
- Plant response rating, Foxtail, Green [10, 31]: 65
- Plant response rating, Foxtail, Green [10, 29]: 50
- Plant response rating, Foxtail, Green [10, 32]: 40
- Ducksalad plant response rating [11]: 60
- Plant response rating, Bromegrass, Downy [12, 30]: 45
- Plant response rating, Bromegrass, Downy [12, 31]: 55
- Plant response rating, Bromegrass, Downy [12, 29]: 40
- Plant response rating, Bromegrass, Downy [12, 32]: 40
- Plant response rating (0 to 100 scale), Morningglory [13, 27]: 90
- Morningglory plant response rating [13, 28]: 80
- Morningglory plant response rating [13, 29]: 70
- Sedge, Umbrella plant response rating [14]: 90
- Wheat plant response rating ([15]; 500 g ai/ha, scale 0 to 100, 0 no effect, 100 complete control, preemergence): 100
- Wheat plant response rating [15, 28]: 40
- Wheat plant response rating [15, 29]: 20
- Barley, Winter plant response rating [16, 33]: 40
- Plant response rating, Barley, Winter ([16]; Postemergence, 125 g ai/ha, scale 0 to 100, 0 no effect, 100 complete control): 35
- Plant response rating, Barley, Winter [16, 30]: 35
- Plant response rating, Barley, Winter ([16]; postemergence, 62 g ai/ha, scale 0 to 100 (0 no effect, 100 complete control)): 25
- Plant response rating (0 to 100 scale), Surinam Grass [17, 27]: 70
- Surinam Grass plant response rating [17, 28]: 30
- Surinam Grass plant response rating [17, 29]: 20
- Barnyardgrass plant response rating [18]: 100
- Plant response rating (0 to 100 scale), Cocklebur [19, 27]: 60
- Cocklebur plant response rating [19, 28]: 70
- Cocklebur plant response rating [19, 29]: 60
- Plant response rating (0 to 100 scale), Corn [20, 27]: 40
- Corn plant response rating [20, 28]: 40
- Corn plant response rating [20, 29]: 30
- Plant response rating (0 to 100 scale), Crabgrass, Large [21, 27]: 100
- Crabgrass, Large plant response rating [21, 28]: 40
- Crabgrass, Large plant response rating [21, 29]: 30
- Blackgrass plant response rating [22, 33]: 65
- Plant response rating, Blackgrass [22, 30]: 60
- Plant response rating, Blackgrass [22, 29]: 60
- Plant response rating, Blackgrass [22, 32]: 45
- Rice plant response rating [23]: 70
- Plant response rating (0 to 100 scale), Velvetleaf [24, 27]: 80
- Velvetleaf plant response rating [24, 28]: 60
- Velvetleaf plant response rating [24, 29]: 50
- Plant response rating, Windgrass [25, 31]: 60
- Plant response rating, Windgrass [25, 29]: 40
- Plant response rating, Windgrass [25, 32]: 40
- Oat, Wild plant response rating [26, 28]: 40
- Oat, Wild plant response rating [26, 29]: 30
